Among the data in patent publication US20240270762A1, “PENICILLIN-BINDING PROTEIN INHIBITORS” (priority 2021, published 2024) are EC50, IC50 and MIC values, retold here.

The target in test [1] is T1, PBP3 from Escherichia coli (K-12) (Escherichia coli, UniProt P0AD68).
T1 construct: made in house
Kind of test: Bocillin-FL fluorescence polarization competition binding, E. coli PBP3. In short, it runs like this:
(§1)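 Purified PBPs pre-incubated with inhibitor (E. coli PBP3 1.5 μM, 30 min; P. aeruginosa PBP3 0.75 μM, A. baumannii PBP1a 1 μM and PBP3 0.2 μM, 15 min), then Bocillin-FL 0.1 μM (0.05 μM for PBP1a) added; FP read up to 60 min. EC50 = concentration halving bound Bocillin-FL.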
Background: Polarisation of emitted light reports the rotation of a fluorescent probe.

Test [2] deals with T2, PBP3 from Pseudomonas aeruginosa (PAO1) (Pseudomonas aeruginosa, UniProt G3XD46).
T2 construct: made in house
T2 sequence (G3XD46 whole entry): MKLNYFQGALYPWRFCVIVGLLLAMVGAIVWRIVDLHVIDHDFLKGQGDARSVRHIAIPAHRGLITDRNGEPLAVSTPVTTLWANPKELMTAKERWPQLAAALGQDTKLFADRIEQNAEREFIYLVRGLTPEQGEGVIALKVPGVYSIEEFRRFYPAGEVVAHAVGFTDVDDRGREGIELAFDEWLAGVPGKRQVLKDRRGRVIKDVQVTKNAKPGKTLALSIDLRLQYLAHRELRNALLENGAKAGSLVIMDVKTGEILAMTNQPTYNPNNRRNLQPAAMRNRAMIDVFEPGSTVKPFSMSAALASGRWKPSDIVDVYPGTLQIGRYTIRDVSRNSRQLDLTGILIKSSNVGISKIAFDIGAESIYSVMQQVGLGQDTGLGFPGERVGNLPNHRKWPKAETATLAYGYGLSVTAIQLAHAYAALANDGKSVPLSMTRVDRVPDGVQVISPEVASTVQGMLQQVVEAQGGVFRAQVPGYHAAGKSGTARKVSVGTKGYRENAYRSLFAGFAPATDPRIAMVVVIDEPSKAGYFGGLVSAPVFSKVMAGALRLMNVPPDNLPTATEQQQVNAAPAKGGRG
Kind of test: Bocillin-FL fluorescence polarization competition binding, P. aeruginosa PBP3. Conditions: Binding affinity to P. aeruginosa PBP3; fluorescence polarization competition binding assay using Bocillin-FL; read-out: P. aeruginosa PBP3 Potency. In a few lines: as §1

The next test has as its system E. coli ATCC 25922. The experiment in a line: microbe, parasite or virus in culture. Conditions: Escherichia coli, ATCC25922, read-out: MIC E. coli 25922. The class given is cell-based.
The next test concerns E. coli AG100A. The experiment in a line: Broth microdilution MIC in CAMHB. The format is cell-based. As to conditions: Escherichia coli, read-out: MIC E. coli AG100A. For orientation: Broth dilution looks for growth in wells or tubes with falling amounts of substance.
Another test relates to K. pneumoniae 848844. Kind of test: microbe, parasite or virus in culture. The class given is cell-based. Conditions: Klebsiella pneumoniae, 848844, read-out: MIC K. pneumoniae 848844.
In another test the test system is A. baumannii ATCC 19606. Kind of test: microbe, parasite or virus in culture. The class given is cell-based. As to conditions: Acinetobacter baumannii, ATCC19606, read-out: MIC, A. baumannii ATCC 19606.
Test [3] has as its system P. aeruginosa (ΔmexAB-oprM). Kind of test: Broth microdilution MIC in CAMHB. The class given is cell-based. Conditions: Pseudomonas aeruginosa; read-out: MIC P. aeruginosa ΔmexAB-oprM.
The subject of test [4] is N. gonorrhoeae ATCC 49226. The experiment in a line: Liquid broth MIC in Fastidious broth. As to conditions: Neisseria gonorrhoeae, ATCC49226, read-out: Minimum Inhibitory Concentration (MIC), N. gonorrhoeae ATCC 49226.
The subject of a further test is N. gonorrhoeae WHO M. Kind of test: Liquid broth MIC in Fastidious broth. As to conditions: Neisseria gonorrhoeae, read-out: Minimum Inhibitory Concentration (MIC), N. gonorrhoeae WHO M.
Another test has as its system N. gonorrhoeae WHO X. The experiment in a line: Liquid broth MIC in Fastidious broth. Conditions: Neisseria gonorrhoeae, read-out: Minimum Inhibitory Concentration (MIC), N. gonorrhoeae WHO X.
The subject of a further test is N. gonorrhoeae WHO Q. Kind of test: Liquid broth MIC in Fastidious broth. As to conditions: Neisseria gonorrhoeae, read-out: Minimum Inhibitory Concentration (MIC), N. gonorrhoeae WHO Q.
The subject of another test is N. gonorrhoeae CDC-0197. Kind of test: Liquid broth MIC in Fastidious broth. As to conditions: Neisseria gonorrhoeae, CDC0197, read-out: Minimum Inhibitory Concentration (MIC), N. gonorrhoeae CDC-0197.

In brackets after ≈: the same amount, converted by molar mass.

T1 sequence (P0AD68 1-577): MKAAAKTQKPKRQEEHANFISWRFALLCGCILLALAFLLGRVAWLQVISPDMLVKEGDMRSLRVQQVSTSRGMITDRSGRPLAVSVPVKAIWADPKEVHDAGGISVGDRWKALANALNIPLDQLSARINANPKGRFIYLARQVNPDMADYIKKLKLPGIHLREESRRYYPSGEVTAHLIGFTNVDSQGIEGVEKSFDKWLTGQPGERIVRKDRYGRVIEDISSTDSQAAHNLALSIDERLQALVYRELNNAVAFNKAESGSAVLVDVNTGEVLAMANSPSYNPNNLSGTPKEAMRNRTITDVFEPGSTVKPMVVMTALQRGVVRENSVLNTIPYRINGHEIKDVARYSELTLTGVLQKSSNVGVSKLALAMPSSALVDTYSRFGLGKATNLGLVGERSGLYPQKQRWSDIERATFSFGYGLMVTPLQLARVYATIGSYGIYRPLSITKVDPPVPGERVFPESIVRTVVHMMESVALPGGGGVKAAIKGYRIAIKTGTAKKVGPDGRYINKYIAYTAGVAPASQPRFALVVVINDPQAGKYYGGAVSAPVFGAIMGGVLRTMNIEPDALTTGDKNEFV

By EC50 is commonly meant the concentration that produces a half-maximal response. In the case of `O=C(O)c1cccc2c1OB(O)[C@@H](NC(=O)C(NC(=O)c1cnc[nH]c1=O)c1ccc(P(=O)(O)O)cc1)C2` (stereo partly drawn) [Example 176, (3R)-2-hydroxy-3-(2-(6-oxo-1,6-dihydropyrimidine-5-carboxamido)-2-(4-phosphonophenyl)acetamido)-3,4-dihydro-2H-benzo[e][1,2]oxaborinine-8-carboxylic acid], the EC50 in test [1] was 50 to 250 µM. The IC50 in test [2] was less than 10 µM. For the same compound, the MIC in the test on E. coli ATCC 25922 is greater than 128 µg/mL; in the test with E. coli AG100A, greater than 128 µg/mL; in the test on K. pneumoniae 848844 it was greater than 128 µg/mL; with A. baumannii ATCC 19606, greater than 128 µg/mL; in test [3] it was 32 to 64 µg/mL (≈ 59 to 118 µM); in [4] it was 4 to 8 µg/mL (≈ 7.38 to 14.8 µM). Moreover, the MIC in the test with N. gonorrhoeae WHO M was in the range of 1 to 2 µg/mL (≈ 1.84 to 3.69 µM); in the test on N. gonorrhoeae WHO X it was 16 to 32 µg/mL (≈ 29.5 to 59 µM); in the test on N. gonorrhoeae WHO Q it was 16 to 32 µg/mL (≈ 29.5 to 59 µM); in the test with N. gonorrhoeae CDC-0197, 16 to 32 µg/mL (≈ 29.5 to 59 µM).

In [1], `N#Cc1ccnc(C(=O)NC(C(=O)N[C@H]2Cc3cccc(C(=O)O)c3OB2O)c2ccc(P(=O)(O)O)cc2)c1` (stereo partly drawn) [Example 179, (3R)-3-(2-(4-cyanopicolinamido)-2-(4-phosphonophenyl)acetamido)-2-hydroxy-3,4-dihydro-2H-benzo[e][1,2]oxaborinine-8-carboxylic acid] returned a concentration for a half-maximal effect (EC50) of 50 to 250 µM. In [2], the IC50 was less than 10 µM. Also, the MIC in the test with E. coli ATCC 25922 was greater than 128 µg/mL; in the test with E. coli AG100A, greater than 128 µg/mL; in the test on K. pneumoniae 848844 it was greater than 128 µg/mL; in the test with A. baumannii ATCC 19606, greater than 128 µg/mL; in test [3], greater than 128 µg/mL; in [4], 16 to 32 µg/mL (≈ 29.1 to 58.2 µM). For the same compound, the MIC in the test with N. gonorrhoeae WHO M lay in the range of 4 to 8 µg/mL (≈ 7.27 to 14.5 µM); in the test on N. gonorrhoeae WHO X it was 16 to 32 µg/mL (≈ 29.1 to 58.2 µM); in the test with N. gonorrhoeae WHO Q it was 16 to 32 µg/mL (≈ 29.1 to 58.2 µM); in the test on N. gonorrhoeae CDC-0197, 16 to 32 µg/mL (≈ 29.1 to 58.2 µM).

Compound `N#Cc1cccc(C(=O)N[C@@H](C(=O)N[C@H]2Cc3cccc(C(=O)O)c3OB2O)c2ccc(P(=O)(O)O)cc2)n1` [Example 180, (R)-3-((R)-2-(6-cyanopicolinamido)-2-(4-phosphonophenyl)acetamido)-2-hydroxy-3,4-dihydro-2H-benzo[e][1,2]oxaborinine-8-carboxylic acid] registered an EC50 in test [1] of less than 10 µM. Further, the IC50 in [2] is less than 10 µM. The MIC with E. coli ATCC 25922 is greater than 128 µg/mL; in the test on E. coli AG100A, 8 to 16 µg/mL (≈ 14.5 to 29.1 µM); with K. pneumoniae 848844 it was greater than 128 µg/mL; in the test with A. baumannii ATCC 19606, greater than 128 µg/mL; in test [3] it was 32 to 64 µg/mL (≈ 58.2 to 116 µM); in test [4], less than 1 µg/mL. Also, the MIC with N. gonorrhoeae WHO M was less than 1 µg/mL; in the test with N. gonorrhoeae WHO X, 4 to 8 µg/mL (≈ 7.27 to 14.5 µM); with N. gonorrhoeae WHO Q, 1 to 2 µg/mL (≈ 1.82 to 3.63 µM); with N. gonorrhoeae CDC-0197, less than 1 µg/mL.

As to `O=C(O)c1cccc2c1OB(O)[C@@H](NC(=O)C(NC(=O)c1ncccc1Cl)c1ccc(P(=O)(O)O)cc1)C2` (stereo partly drawn) [Example 183, (3R)-3-(2-(3-chloropicolinamido)-2-(4-phosphonophenyl)acetamido)-2-hydroxy-3,4-dihydro-2H-benzo[e][1,2]oxaborinine-8-carboxylic acid], in [1], the EC50 lay within 50 to 250 µM. For the same compound, the IC50 in test [2] is less than 10 µM. Moreover, the MIC was greater than 128 µg/mL with E. coli ATCC 25922; greater than 128 µg/mL in the test on E. coli AG100A; greater than 128 µg/mL in the test with K. pneumoniae 848844; greater than 128 µg/mL with A. baumannii ATCC 19606; greater than 128 µg/mL in [3]; 4 to 8 µg/mL (≈ 7.15 to 14.3 µM) in [4]. For the same compound, the MIC was in the range of 1 to 2 µg/mL (≈ 1.79 to 3.57 µM) in the test with N. gonorrhoeae WHO M, 16 to 32 µg/mL (≈ 28.6 to 57.2 µM) in the test on N. gonorrhoeae WHO X, 16 to 32 µg/mL (≈ 28.6 to 57.2 µM) in the test with N. gonorrhoeae WHO Q and 16 to 32 µg/mL (≈ 28.6 to 57.2 µM) with N. gonorrhoeae CDC-0197.

Regarding `O=C(NC(C(=O)N[C@H]1Cc2cccc(C(=O)O)c2OB1O)c1ccc(P(=O)(O)O)cc1)c1ccc(Cl)cn1` (stereo partly drawn) [Example 184, (3R)-3-(2-(5-chloropicolinamido)-2-(4-phosphonophenyl)acetamido)-2-hydroxy-3,4-dihydro-2H-benzo[e][1,2]oxaborinine-8-carboxylic acid], the EC50 in test [1] was less than 10 µM. In [2], the IC50 was less than 10 µM. The MIC is greater than 128 µg/mL in the test with E. coli ATCC 25922; 32 to 64 µg/mL (≈ 57.2 to 114 µM) in the test with E. coli AG100A; greater than 128 µg/mL in the test with K. pneumoniae 848844; greater than 128 µg/mL in the test on A. baumannii ATCC 19606; greater than 128 µg/mL in test [3]; less than 1 µg/mL in test [4]. Besides, the MIC in the test on N. gonorrhoeae WHO M is less than 1 µg/mL; in the test on N. gonorrhoeae WHO X it was 4 to 8 µg/mL (≈ 7.15 to 14.3 µM); in the test with N. gonorrhoeae WHO Q it was 1 to 2 µg/mL (≈ 1.79 to 3.57 µM); in the test with N. gonorrhoeae CDC-0197, less than 1 µg/mL.

The compound `NC(=O)c1ccc(C(=O)NC(C(=O)N[C@H]2Cc3cccc(C(=O)O)c3OB2O)c2ccc(P(=O)(O)O)cc2)nc1` (stereo partly drawn) [Example 188, (3R)-3-(2-(5-carbamoylpicolinamido)-2-(4-phosphonophenyl)acetamido)-2-hydroxy-3,4-dihydro-2H-benzo[e][1,2]oxaborinine-8-carboxylic acid] gave an EC50 in test [1] of 10 to 50 µM. For the same compound, the IC50 in test [2] is less than 10 µM. Besides, the MIC was greater than 128 µg/mL in the test with E. coli ATCC 25922; greater than 128 µg/mL in the test on E. coli AG100A; greater than 128 µg/mL in the test on K. pneumoniae 848844; greater than 128 µg/mL with A. baumannii ATCC 19606; 32 to 64 µg/mL (≈ 56.3 to 113 µM) in [3]; less than 1 µg/mL in test [4]. Besides, the MIC with N. gonorrhoeae WHO M was less than 1 µg/mL; in the test on N. gonorrhoeae WHO X, 4 to 8 µg/mL (≈ 7.04 to 14.1 µM); in the test with N. gonorrhoeae WHO Q, 1 to 2 µg/mL (≈ 1.76 to 3.52 µM); with N. gonorrhoeae CDC-0197, 1 to 2 µg/mL (≈ 1.76 to 3.52 µM).

In turn, `CCN1CCN(C(=O)NC(C(=O)N[C@H]2Cc3cccc(C(=O)O)c3OB2O)c2ccc(S(=O)(=O)O)cc2)C(=O)C1=O` (stereo partly drawn) [Example 189, (3R)-3-(2-(4-ethyl-2,3-dioxopiperazine-1-carboxamido)-2-(4-sulfophenyl)acetamido)-2-hydroxy-3,4-dihydro-2H-benzo[e][1,2]oxaborinine-8-carboxylic acid] showed an EC50 in [1] of 10 to 50 µM. The IC50 in test [2] is less than 10 µM. In addition, the MIC with E. coli ATCC 25922 is greater than 128 µg/mL; in the test on E. coli AG100A it was 8 to 16 µg/mL (≈ 13.6 to 27.2 µM); in the test with K. pneumoniae 848844 it was greater than 128 µg/mL; in the test with A. baumannii ATCC 19606, greater than 128 µg/mL; in test [3], 8 to 16 µg/mL (≈ 13.6 to 27.2 µM); in test [4], less than 1 µg/mL. Further, the MIC in the test with N. gonorrhoeae WHO M is less than 1 µg/mL; in the test on N. gonorrhoeae WHO X it was 4 to 8 µg/mL (≈ 6.8 to 13.6 µM); in the test with N. gonorrhoeae WHO Q, 1 to 2 µg/mL (≈ 1.7 to 3.4 µM); in the test with N. gonorrhoeae CDC-0197, 1 to 2 µg/mL (≈ 1.7 to 3.4 µM).
